Data published in patent US20230097700A1, “AZETIDINE SULFONAMIDE COMPOUND” (DAIICHI SANKYO COMPANY, LIMITED, priority 2019, published 2023).

What was measured:
[1] = tested on: activated T cells (CD4+ T cells derived from the mouse spleen); assay: Incorporation of 3H-thymidine into activated T cells; type: cell-based, mouse (C57BL/6J); conditions: 3H-thymidine incorporation, mouse spleen CD4+ T cells activated with Dynabeads Mouse T-Activator CD3/CD28
Procedure: Effect of a test substance on incorporation of ^3H-thymidine was evaluated using T cells derived from the mouse spleen. The spleen was excised out from a C57BL/6J mouse euthanized, cut into pieces, ground on a cell strainer (40 μm mesh) and centrifuged to collect spleen cells. CD4+ T cells were isolated from the spleen cells by use of EasySep Mouse CD4+ T cell isolation kit (STEMCELL Technologies). CD4+ T cells were seeded to a 96-well round-bottom plate. Test substance dissolved in DMSO (dimethyl sulfoxide) or vehicle (DMSO) was added to culture medium and Dynabeads Mouse T-Activator CD3/CD28 (Thermo Fisher Scientific Inc.) was added. Culture was carried out at 37° C. in 5% CO2. After culture was carried out for 24 hours, ^3H-thymidine (PerkinElmer) diluted with the culture medium was added to individual wells. Culture was further carried out overnight at 37° C. in 5% CO2. In order to measure ^3H-thymidine incorporated in nuclei of the cells, the cells were collected on a filter plate UniFilter-96 GF/B (PerkinElmer) by use of a FilterMate Universal Harvester (PerkinElmer). After the filter plate was placed in a dryer and allowed to stand still for 2 hours or more, scintillation cocktail MicroScint-O (PerkinElmer) was added and radioactivity was measured by TopCount NXT (PerkinElmer). With the radioactivity of a group not containing a test substance being specified as 100% and the radioactivity of a group not activated being specified as 0%, relative radioactivity values of individual wells to which the test substance was added (proliferation rate, % of vehicle) were calculated. The values of “% of vehicle” were entered in analysis software Prism (Version 4.03, GraphPad Software). “Nonlinear regression Log (inhibitor) vs reaction variable tilt” was selected and sigmoid type-fitting (Bottom=0, Top=100) was carried out to calculate 50% inhibition concentration (IC50). The compound of the present invention suppresses ^3H-thymidine incorporation in activated T cells.

[2] = tested on: IFN-α production in mouse spleen cells; assay: IFN-α production in mouse spleen cells stimulated with TLR9 ligand CpG-ODN D35; type: cell-based, mouse (C57BL/6J)
Procedure: The concentration of test substance added is 1 nM to 300 nM. The graph represents a curve showing response to concentration of a test substance, with the IFN-α production of a group not containing a test substance being specified as 100% and the IFN-α production of a group not stimulated being specified as 0%.
IFN-α production by stimulation with TLR9 ligand CpG-ODN D35 activating pDC was evaluated. Spleen cells were prepared from a C57BL/6J mouse euthanized in the same manner as in Test Example 1 and seeded to a 96-well round-bottom plate. Test substance dissolved in DMSO or vehicle (DMSO) was added to culture medium. After pre-incubation was carried out for 30 minutes, CpG-ODN […] (final concentration 1 μM) was added. Culture was carried out at 37° C. in 5% CO2. After culture was carried out for 24 hours, the culture supernatant was recovered. The concentration of IFN-α in the supernatant was measured by ELISA kit (Mouse IFN-alpha Platinum ELISA Kit, eBioscience). With the IFN-α production of a group not containing a test substance being specified as 100% and the IFN-α production of a group not activated being specified as 0%, relative values of IFN-α production of individual wells (IFN-α production rate, % of vehicle) were calculated. The values of “% of vehicle” of IFN-α production were entered in analysis software Prism (Version 5.0, GraphPad Software). […]

[3] = tested on: ConA induced mouse cytokine production model; assay: ConA induced mouse cytokine production model, IFN-γ in the plasma; type: in vivo, mouse (Balb/c); conditions: one hour before second ConA treatment
Procedure: In this test, mice were treated with concanavalin A (ConA) to activate lymphocytes and the medicinal effect of a test substance was evaluated based on the production of IFN-γ. A system in which cytokine production based on expression of LAT1 is induced, by treating mice with ConA twice at optimal timing, was established. To female Balb/c mice of 7 weeks old, a ConA solution (0.4 mg/mL, Concanavalin A, WAKO, 037-08774) prepared with PBS (D-PBS (−), WAKO, 049-29793) was administered (4 mg/kg, twice at an interval of 16 hours) through the tail vein. Four hours later, under anesthesia by isoflurane inhalation, blood was taken from the posterior vena cava of each of the mice. The blood was centrifuged to collect the plasma. The concentration of IFN-γ in the in plasma was measured by AlphaLISA immunoassay kit (Mouse Interferon-gamma (mIFN-γ) Kit, PerkinElmer, AL501C). Test substance was dissolved in 0.5% MC or mushed in an agate mortar, suspended in 0.5% MC to prepare a solution to be administered (1 or 3 mg/mL) and orally administered one hour before the second treatment with ConA so as to be 10 mL/kg (10 or 30 mg/kg. To Vehicle group, 0.5% MC was administered similarly so as to be 10 mL/kg). Test substances were evaluated. Suppression rates (%) were calculated in accordance with the following expression. Suppression rate (%)=100−[(average value of test substance administration group−average value of Normal group)/(average value of Vehicle group−average value of Normal group)×100] Whether the data of two groups, Normal group and Vehicle group, differ or not was determined by Student's or Welch's t test. Whether the data of Vehicle group and a test substance administration group are different or not was analyzed by parametric multiple comparison test, Dunnett test. The compounds (test substances) suppressed IFN-γ production in a dose-dependent manner.

IC50 [1]	IC50 ([2]; CpG-ODN stimulation 1 μM, 24 hours, ELISA)	SMILES	suppressive action on IFN-α production ([2]; test substance 1 nM to 300 nM)	Percent suppression (%) ([3]; 10 mg/kg oral)	Percent suppression (%) ([3]; 30 mg/kg oral)
20 nM	13 nM	N[C@@H](Cc1cccc(S(=O)(=O)N2CC(Oc3cccc(F)c3)(c3ccccc3)C2)c1)C(=O)O [Example 1, (2S)-2-Amino-3-(3-{[3-(3-fluorophenoxy)-3-phenylazetidin-1-yl]sulfonyl)phenyl)propanoic acid]	concentration-dependent suppressive action		
		Cl.[2H]c1c([2H])c([2H])c(OC2(c3ccccc3)CN(S(=O)(=O)c3cccc(C[C@H](N)C(=O)OC(C(=O)N(C)C)C(C)C)c3)C2)c([2H])c1[2H] (stereo partly drawn) [Example 25, 1-(Dimethylamino)-3-methyl-1-oxobutan-2-yl (2S)-2-amino-3-(3-{3-phenyl-3-[(^2H5)phenyloxy]azetidin-1-sulfonyl}phenyl)propanoate monohydrochloride]		31%	51%
		Cl.[2H]c1c([2H])c([2H])c(OC2(c3ccc(F)cc3)CN(S(=O)(=O)c3cccc(C[C@H](N)C(=O)OC(C(=O)N(C)C)C(C)C)c3)C2)c([2H])c1[2H] (stereo partly drawn) [Example 27, 1-(Dimethylamino)-3-methyl-1-oxobutan-2-yl (2S)-2-amino-3-(3-{3-(4-fluorophenyl)-3-[(^2H5)phenyloxy]azetidin-1-sulfonyl}phenyl)propanoate monohydrochloride]		47%	58%
		CC(OC(=O)[C@@H](N)Cc1cccc(S(=O)(=O)N2CC(Oc3ccc(F)cc3)(c3ccc(F)cn3)C2)c1)C(=O)N(C)C.Cl.Cl (stereo partly drawn) [Example 62, 1-(Dimethylamino)-1-oxopurpan-2-yl (2S)-2-amino-3-(3-{[3-(4-fluorophenoxy)-3-(5-fluoropyridin-2-yl)azetidin-1-yl]sulfonyl}phenyl)propanoate dihydrochloride]		43%	54%
		CC(C)C(OC(=O)[C@@H](N)Cc1cccc(S(=O)(=O)N2CC(Oc3ccc(F)cc3)(c3ccc(F)cn3)C2)c1)C(=O)N(C)C.Cl.Cl (stereo partly drawn) [Example 69, 1-(Dimethylamino)-3-methyl-1-oxobutan-2-yl (2S)-2-amino-3-(3-{[3-(4-fluorophenoxy)-3-(5-fluoropyridin-2-yl)azetidin-1-yl]sulfonyl}phenyl)propanoate dihydrochloride]		33%	44%
15 nM		N[C@@H](Cc1cccc(S(=O)(=O)N2CC(Oc3ccccc3)(c3ccccc3)C2)c1)C(=O)O [Example 88, (2S)-2-Amino-3-(3-{[3-(3-phenoxy)-3-phenylazetidin-1-yl]sulfonyl}phenyl)propanoic acid]			
3.4 nM		N[C@@H](Cc1cccc(S(=O)(=O)N2CC(Oc3ccc4[nH]ncc4c3)(c3ccccc3)C2)c1)C(=O)O [Example 90, (2S)-2-Amino-3-(3-{3-[(1H-indazol-5-yl)oxy]-3-phenylazetidin-1-sulfonyl}phenyl)propanoic acid]			
		CC(C)C(OC(=O)[C@@H](N)Cc1cccc(S(=O)(=O)N2CC(Oc3ccccc3)(c3ccccc3)C2)c1)C(=O)N(C)C.Cl (stereo partly drawn) [Example 91, 1-(Dimethylamino)-3-methyl-1-oxobutan-2-yl (2S)-2-amino-3-[3-(3-phenoxy-3-phenylazetidin-1-sulfonyl)phenyl]propanoate monohydrochloride]		55%	53%
		CC(C)C(OC(=O)[C@@H](N)Cc1cccc(S(=O)(=O)N2CC(Oc3ccccc3)(c3ccc(F)cc3)C2)c1)C(=O)N(C)C.Cl (stereo partly drawn) [Example 93, 1-(Dimethylamino)-3-methyl-1-oxobutan-2-yl (2S)-2-amino-3-(3-{[3-(4-fluorophenyl)-3-phenoxyazetidin-1-yl]sulfonyl}phenyl)propanoate monohydrochloride]		46%	34%
